In ChEMBL document CHEMBL1201862, “PubChem BioAssay data set” (2004):
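How tested: cells in 96-well plates exposed to compound for 48 hours at five concentrations. The concentration for 50% growth inhibition is given as GI50.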 Activity calls are given as the source filed them. No stated cut-off is given here; in the data, active = GI50 up to about 1.1 µM and inactive = higher.

Key:
Test in all cases: NCI tumour cell line growth inhibition, 48 h
[1] = test system: SW-620
[2] = test system: 786-0
[3] = test system: NCI-H23
[4] = test system: A549
[5] = test system: SK-MEL-28
[6] = test system: Hs-578T
[7] = test system: DU-145
[8] = test system: SK-MEL-2
[9] = test system: HOP-62
[10] = test system: CAKI-1
[11] = test system: PC-3
[12] = test system: NCI/ADR-RES
[13] = test system: NCI-H522
[14] = test system: ACHN
[15] = test system: HT-29
[16] = test system: UO-31
[17] = test system: HL-60
[18] = test system: SF-539
[19] = test system: SK-OV-3

Measured: GI50

COc1ccc(/C=C2\c3cc(OC)c(OC)cc3CCN2C(=O)c2ccccc2)cc1OC
inactive: [1] 34.5 µM | [2] 34.4 µM | [3] 87.5 µM | [4] 37.8 µM | [5] 46.7 µM | [6] 35.6 µM | [7] 55 µM | [8] 43.3 µM | [9] 37.2 µM | [10] 54 µM | [11] 46.5 µM | [12] 23.7 µM | [13] 20.3 µM | [14] 53.5 µM | [15] 30.7 µM | [16] 35.5 µM | [17] 23.1 µM | [18] 46.7 µM

COC(c1ccc(C(C)(C)C)cc1)(c1ccc(C(C)(C)C)cc1)c1ccc(C(C)(C)C)cc1
inactive: [1] > 100 µM | [2] > 100 µM | [3] > 100 µM | [4] > 100 µM | [5] > 100 µM | [6] > 100 µM | [7] > 100 µM | [8] > 100 µM | [9] > 100 µM | [10] > 100 µM | [11] > 100 µM | [12] > 100 µM | [13] > 100 µM | [14] > 100 µM | [15] > 100 µM | [16] > 100 µM | [17] > 100 µM | [18] > 100 µM

N#CC12CC=C(c3ccccc3)N=C1NC(c1ccccc1)=CC2 (stereo not drawn)
inactive: [1] 98.9 µM | [2] > 100 µM | [3] 84.9 µM | [4] 54 µM | [5] > 100 µM | [6] > 100 µM | [7] 57.5 µM | [8] 56.4 µM | [9] > 100 µM | [11] 33.9 µM | [19] > 100 µM | [12] 53.5 µM | [13] 46.7 µM | [14] 57.4 µM | [15] 57.3 µM | [16] 40.3 µM | [17] 22.4 µM | [18] > 100 µM

Cc1cccc(N2C(=O)C3c4[nH]c5ccccc5c4C4CCC(C(C)(C)C)CC4C3C2=O)c1 (stereo not drawn)
inactive: [1] 11.8 µM | [2] 3.63 µM | [3] 16 µM | [4] 10.6 µM | [5] 16.3 µM | [6] 9.98 µM | [7] 12.4 µM | [8] 18.2 µM | [9] 3.54 µM | [10] 13.1 µM | [11] 12.4 µM | [12] 15.7 µM | [13] 11.1 µM | [14] 4.95 µM | [15] 13.5 µM | [16] 15.3 µM | [17] 46.3 µM

COC(=O)C1(C)CCC(c2ccc(C)cc2)=C(CC(=O)O)C1 (stereo not drawn)
inactive: [1] > 100 µM | [2] > 100 µM | [3] > 100 µM | [4] > 100 µM | [5] > 100 µM | [6] > 100 µM | [7] > 100 µM | [8] > 100 µM | [9] > 100 µM | [11] > 100 µM | [19] > 100 µM | [12] > 100 µM | [13] > 100 µM | [14] > 100 µM | [15] > 100 µM | [17] > 100 µM | [18] > 100 µM

COC(=O)c1ccccc1/C=C1\Cc2c(ccc3c2CCC3)C1=O
inactive: [1] > 100 µM | [2] 70 µM | [3] > 100 µM | [4] > 100 µM | [5] > 100 µM | [6] > 100 µM | [7] > 100 µM | [8] 56 µM | [9] 80.5 µM | [10] > 100 µM | [11] > 100 µM | [12] > 100 µM | [13] > 100 µM | [14] > 100 µM | [15] > 100 µM | [16] > 100 µM | [17] > 100 µM | [18] > 100 µM

O=C(NCCc1ccccc1)c1c(O)nc2ccccc2c1O
inactive: [1] > 100 µM | [2] > 100 µM | [3] > 100 µM | [4] > 100 µM | [5] > 100 µM | [6] > 100 µM | [7] > 100 µM | [9] > 100 µM | [10] > 100 µM | [11] > 100 µM | [12] > 100 µM | [13] > 100 µM | [14] > 100 µM | [15] > 100 µM | [16] > 100 µM | [17] > 100 µM | [18] > 100 µM

O=C(CCCl)NN=C1NCCCCN1
inactive: [1] > 100 µM | [2] > 100 µM | [3] > 100 µM | [4] > 100 µM | [5] > 100 µM | [6] > 100 µM | [7] > 100 µM | [8] > 100 µM | [9] > 100 µM | [11] > 100 µM | [19] > 100 µM | [12] > 100 µM | [13] > 100 µM | [14] > 100 µM | [15] > 100 µM | [16] > 100 µM | [17] > 100 µM | [18] > 100 µM

CN(C)CCNc1ccc(NCC[N+](C)(C)Cc2ccc([N+](=O)[O-])cc2)c2c1C(=O)c1ccccc1C2=O
inactive: [1] 13.3 µM | [2] 16.2 µM | [3] 20.2 µM | [4] 23.4 µM | [5] > 25 µM | [6] 19.3 µM | [7] 14.1 µM | [8] > 25 µM | [9] 19.8 µM | [10] 3.01 µM | [11] 13.6 µM | [19] > 25 µM | [12] > 25 µM | [13] 8.73 µM | [14] 12.1 µM | [15] 16.6 µM | [16] 9.51 µM | [17] 4.28 µM

[N-]=[N+]=CC(=O)C1CCN(c2ccccc2)C1=O (stereo not drawn)
inactive: [1] > 10 µM | [2] > 10 µM | [3] > 10 µM | [4] > 10 µM | [5] > 10 µM | [6] > 10 µM | [7] > 10 µM | [8] > 10 µM | [9] > 10 µM | [10] > 10 µM | [11] > 10 µM | [19] > 10 µM | [12] > 10 µM | [14] > 10 µM | [15] > 10 µM | [16] > 10 µM | [17] > 10 µM | [18] > 10 µM

c1ccc2c(c1)C(=Nc1ccc(N=C3c4ccccc4-c4ccccc43)cc1)c1ccccc1-2
inactive: [1] > 100 µM | [2] > 100 µM | [3] > 100 µM | [4] > 100 µM | [6] > 100 µM | [7] > 100 µM | [8] > 100 µM | [9] > 100 µM | [10] > 100 µM | [11] > 100 µM | [19] > 100 µM | [12] > 100 µM | [13] > 100 µM | [15] > 100 µM | [16] > 100 µM | [17] 54.1 µM
